# Assay results reported in the supplement of paper PMC4628005.
# Assays:
# Settings in all cases: drug exposure time: 96 h
# Vorinostat = compound: O=C(CCCCCCC(=O)Nc1ccccc1)NO [Vorinostat]
# Experimental: (§1)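 Breast cancer cell lines were grown in RPMI 1640 with 10% FBS on collagen I-coated 96-well plates and treated for 96 h (from 24 h after seeding) with 12 dilutions per drug, in triplicate. Growth was read by sulforhodamine B total-protein staining (absorbance 570 nm) relative to diluent control, and IC50 was calculated. The top dose was 1e-5 M for most drugs; Bortezomib went to 2e-5 M and Sirolimus and 17-AAG to 2e-6 M[…].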
# Nutlin-3 = compound: COc1ccc(C2=N[C@@H](c3ccc(Cl)cc3)[C@@H](c3ccc(Cl)cc3)N2C(=O)N2CCNC(=O)C2)c(OC(C)C)c1 [Nutlin-3]
# Experimental: as §1
# Panobinostat = compound: Cc1[nH]c2ccccc2c1CCNCc1ccc(/C=C/C(=O)NO)cc1 [Panobinostat]
# Experimental: as §1
# Azacitidine = compound: Nc1ncn([C@@H]2O[C@H](CO)[C@@H](O)[C@H]2O)c(=O)n1 [Azacitidine]
# Experimental: as §1
# Tipifarnib = compound: Cn1cncc1[C@@](N)(c1ccc(Cl)cc1)c1ccc2c(c1)c(-c1cccc(Cl)c1)cc(=O)n2C [Tipifarnib]
# Experimental: as §1
# Erlotinib = compound: C#Cc1cccc(Nc2ncnc3cc(OCCOC)c(OCCOC)cc23)c1 [Erlotinib]
# Experimental: as §1
# Quisinostat = compound: Cn1cc(CNCC2CCN(c3ncc(C(=O)NO)cn3)CC2)c2ccccc21 [Quisinostat]
# Experimental: as §1
# Gefitinib = compound: COc1cc2ncnc(Nc3ccc(F)c(Cl)c3)c2cc1OCCCN1CCOCC1 [Gefitinib]
# Experimental: as §1
# Doxorubicin = compound: COc1cccc2c1C(=O)c1c(O)c3c(c(O)c1C2=O)C[C@@](O)(C(=O)CO)C[C@@H]3O[C@H]1C[C@H](N)[C@H](O)[C@H](C)O1 [Doxorubicin]
# Experimental: as §1
# Paclitaxel = compound: CC(=O)O[C@H]1C(=O)[C@@]2(C)[C@H]([C@H](OC(=O)c3ccccc3)[C@]3(O)C[C@H](OC(=O)[C@H](O)[C@@H](NC(=O)c4ccccc4)c4ccccc4)C(C)=C1C3(C)C)[C@]1(OC(C)=O)CO[C@@H]1C[C@@H]2O [Paclitaxel]
# Experimental: as §1
# Vandetanib = compound: COc1cc2/c(=N/c3ccc(Br)cc3F)nc[nH]c2cc1OCC1CCN(C)CC1 [Vandetanib]
# Experimental: as §1
# Methotrexate = compound: CN(Cc1cnc2nc(N)nc(N)c2n1)c1ccc(C(=O)N[C@@H](CCC(=O)O)C(=O)O)cc1 [Methotrexate]
# Experimental: as §1
# Decitabine = compound: Nc1ncn([C@H]2C[C@H](O)[C@@H](CO)O2)c(=O)n1 [Decitabine]
# Experimental: as §1
# 5-Fluorouracil = compound: O=c1[nH]cc(F)c(=O)[nH]1 [5-Fluorouracil]
# Experimental: as §1
# Mitoxantrone = compound: O=C1c2c(O)ccc(O)c2C(=O)c2c(NCCNCCO)ccc(NCCNCCO)c21 [Mitoxantrone]
# Experimental: as §1
# Belinostat = compound: O=C(/C=C/c1cccc(S(=O)(=O)Nc2ccccc2)c1)NO [Belinostat]
# Experimental: as §1
# Cisplatin = compound: N.N.[Cl][Pt][Cl] [Cisplatin]
# Experimental: as §1
# Sorafenib = compound: CNC(=O)c1cc(Oc2ccc(NC(=O)Nc3ccc(Cl)c(C(F)(F)F)c3)cc2)ccn1 [Sorafenib]
# Experimental: as §1
# ARQ197 = compound: O=C1NC(=O)[C@@H](c2cn3c4c(cccc24)CCC3)[C@@H]1c1c[nH]c2ccccc12 [ARQ197]
# Experimental: as §1
# Serdemetan = compound: c1ccc2c(CCNc3ccc(Nc4ccncc4)cc3)c[nH]c2c1 [Serdemetan]
# Experimental: as §1
# Lapatinib = compound: CS(=O)(=O)CCNCc1ccc(-c2ccc3ncnc(Nc4ccc(OCc5cccc(F)c5)c(Cl)c4)c3c2)o1 [Lapatinib]
# Experimental: as §1
# Sunitinib = compound: CCN(CC)CCNC(=O)c1c(C)[nH]c(/C=C2\C(=O)Nc3ccc(F)cc32)c1C [Sunitinib]
# Experimental: as §1
# Tamoxifen = compound: CC/C(=C(\c1ccccc1)c1ccc(OCCN(C)C)cc1)c1ccccc1 [Tamoxifen]
# Experimental: as §1
# Docetaxel = compound: CC(=O)O[C@@]12CO[C@@H]1C[C@H](O)[C@@]1(C)C(=O)[C@H](O)C3=C(C)[C@@H](OC(=O)[C@H](O)[C@@H](NC(=O)OC(C)(C)C)c4ccccc4)C[C@@](O)([C@@H](OC(=O)c4ccccc4)[C@H]21)C3(C)C [Docetaxel]
# Experimental: as §1
# Brivanib = compound: Cc1cc2c(F)c(Oc3ncnn4cc(OC[C@@H](C)O)c(C)c34)ccc2[nH]1 [Brivanib]
# Experimental: as §1
# MI-219 = compound: CC(C)(C)C[C@H]1N[C@@H](C(=O)NCC[C@H](O)CO)[C@H](c2cccc(Cl)c2)[C@@]12C(=O)Nc1cc(Cl)c(F)cc12 [MI-219]
# Experimental: as §1
# Dasatinib = compound: Cc1nc(Nc2ncc(C(=O)Nc3c(C)cccc3Cl)s2)cc(N2CCN(CCO)CC2)n1 [Dasatinib]
# Experimental: as §1
# Sirolimus = compound: CO[C@H]1C[C@@H]2CC[C@@H](C)[C@@](O)(O2)C(=O)C(=O)N2CCCC[C@H]2C(=O)O[C@H]([C@H](C)C[C@@H]2CC[C@@H](O)[C@H](OC)C2)CC(=O)[C@H](C)/C=C(\C)[C@@H](O)[C@@H](OC)C(=O)[C@H](C)C[C@H](C)/C=C/C=C/C=C/1C [Sirolimus]
# Experimental: (§2)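 Same SRB 96 h IC50 screen on breast cancer cell lines (RPMI 1640 + 10% FBS, collagen I-coated 96-well plates, triplicates, 12 dilutions), for drugs with a different dose range: Bortezomib up to 2e-5 M; Sirolimus and 17-AAG up to 2e-6 M. Sirolimus values at the 2e-6 M top dose are censored.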
# 17-AAG = compound: C=CCNC1=C2C[C@@H](C)C[C@H](OC)[C@H](O)[C@@H](C)/C=C(\C)[C@H](OC(N)=O)[C@@H](OC)/C=C\C=C(/C)C(=O)NC(=CC1=O)C2=O [17-AAG]
# Experimental: as §2
# Bortezomib = compound: CC(C)C[C@H](NC(=O)[C@H](Cc1ccccc1)NC(=O)c1cnccn1)B(O)O [Bortezomib]
# Experimental: as §2
Test System,IC50 (SRB growth assay) (Vorinostat),IC50 (SRB growth assay) (Nutlin-3),IC50 (SRB growth assay) (Panobinostat),IC50 (SRB growth assay) (Azacitidine),IC50 (SRB growth assay) (Tipifarnib),IC50 (SRB growth assay) (Erlotinib),IC50 (SRB growth assay) (Quisinostat),IC50 (SRB growth assay) (Gefitinib),IC50 (SRB growth assay) (Doxorubicin),IC50 (SRB growth assay) (Paclitaxel),IC50 (SRB growth assay) (Vandetanib),IC50 (SRB growth assay) (Methotrexate),IC50 (SRB growth assay) (Decitabine),IC50 (SRB growth assay) (5-Fluorouracil),IC50 (SRB growth assay) (Mitoxantrone),IC50 (SRB growth assay) (Belinostat),IC50 (SRB growth assay) (Cisplatin),IC50 (SRB growth assay) (Sorafenib),IC50 (SRB growth assay) (ARQ197),IC50 (SRB growth assay) (Serdemetan),IC50 (SRB growth assay) (Lapatinib),IC50 (SRB growth assay) (Sunitinib),IC50 (SRB growth assay) (Tamoxifen),IC50 (SRB growth assay) (Docetaxel),IC50 (SRB growth assay) (Brivanib),IC50 (SRB growth assay) (MI-219),IC50 (SRB growth assay) (Dasatinib),IC50 (SRB growth assay) (Sirolimus),IC50 (SRB growth assay) (17-AAG),IC50 (SRB growth assay) (Bortezomib)
HCC 202,1130 nM,> 10000 nM,16.7 nM,4630 nM,> 10000 nM,6060 nM,6.54 nM,8050 nM,76.5 nM,4.3 nM,3780 nM,47.6 nM,> 10000 nM,7370 nM,213 nM,487 nM,> 10000 nM,5170 nM,427 nM,5010 nM,199 nM,> 10000 nM,> 10000 nM,1.72 nM,> 10000 nM,> 10000 nM,1200 nM,5.17 nM,49.5 nM,1.51 nM
HCC 1143,857 nM,> 10000 nM,11 nM,2070 nM,749 nM,1080 nM,4.84 nM,1040 nM,16.5 nM,1.52 nM,1830 nM,24.7 nM,148 nM,1980 nM,3.93 nM,350 nM,> 10000 nM,6060 nM,481 nM,921 nM,2250 nM,4730 nM,4990 nM,0.306 nM,> 10000 nM,> 10000 nM,5110 nM,0.62 nM,56.6 nM,4.31 nM
HCC 1395,2390 nM,> 10000 nM,26.6 nM,2180 nM,469 nM,> 10000 nM,13 nM,> 10000 nM,55.5 nM,1.76 nM,7740 nM,1940 nM,> 10000 nM,3750 nM,26.1 nM,1070 nM,> 10000 nM,6310 nM,381 nM,1520 nM,3750 nM,8600 nM,7580 nM,0.408 nM,> 10000 nM,> 10000 nM,> 10000 nM,0.636 nM,140 nM,5.53 nM
HCC 1419,542 nM,> 10000 nM,6.31 nM,> 10000 nM,550 nM,2720 nM,3.8 nM,2680 nM,153 nM,33.3 nM,3540 nM,164 nM,> 10000 nM,> 10000 nM,126 nM,174 nM,> 10000 nM,3450 nM,1210 nM,2450 nM,28.4 nM,9930 nM,4580 nM,15.2 nM,> 10000 nM,> 10000 nM,6030 nM,0.195 nM,14 nM,4.28 nM
